Measured values published in US20060199835A1, “Neuroprotective and anti-proliferative compounds” (priority 2004, published 2006).
pIC50: −log10 of the molar value.

Tests used:
Assay type in all cases: cell-based
[1] = tested on: Human lymphoma jurkat cells; experiment: Killing of cultured Jurkats with and without anti-Fas (propidium iodide, Facs); settings: 19 hours
Procedure: Jurkats are a T-cell derived lymphoma cell line which expresses both FAS receptor and Fas-L. These cells, however, are only mildly sensitive to Fas-L/anti-Fas induced apoptosis. Select compounds were tested for their ability to kill jurkats. Additionally, we investigated the ability of select compounds to sensitize jurkats to anti-Fas mediated apoptosis.
Human lymphoma jurkat cells were cultured in suspension in 24 well plates. Jurkat cell were treated with test compounds either alone or in the presence of suboptimal doses of anti-Fas antibody. […] Cells were incubated with propidium iodide and the percentage of cells that incorporated the stain was counted by Facs.

[2] = tested on: Human prostate DU145 cells; experiment: Killing of DU145 prostate cancer cells (Alamar Blue, 7 day treatment)
Procedure: Prostate cancer is often resistant to traditional chemotherapies. DU145 is representative prostated cancer cell line. DU145 cells were cultured in the presence of various concentrations of compound 136. Compound 136 kills 100% of the cells at 10 μM, with an IC50 of approximately 7 μM.
Human prostate DU145 cells were cultured in 96 well dishes. Cells were treated with various concentrations of test compounds for 7 days. Media was then removed and replaced with fresh media containing Alamar Blue. The cells were incubated for a further 4 hours and Alamar blue and conversion was assessed by fluorescence. Compound effectiveness was determined by assessing the reduction in Alamar blue bioconversion following 7 day treatment.

Human lung H460 cells = experiment: Killing of H460 cells (Alamar Blue, 24 hour treatment)
Procedure: H460 is representative of a […] cancer cell line.
Human lung H460 cells (7000 cells/well) were cultured in 96 well dishes. Cells were treated with various concentrations of test compounds for 24 hours. Media was then removed and replaced with fresh media containing Alamar Blue. The cells were incubated for a further 4 hours and Alamar blue and conversion was assessed by fluorescence. Compound effectiveness was determined by assessing the reduction in Alamar blue bioconversion following 24 hour treatment.

[3] = Dose 3, with anti-Fas (5 ng/mL)
[4] = Dose 0.3, with anti-Fas (5 ng/mL)
[5] = Dose 1, with anti-Fas (5 ng/mL)
[6] = Dose 10, with anti-Fas (5 ng/mL)
[7] = Dose 30, with anti-Fas (5 ng/mL)

Row | Compound | Survival % Without Anti-Fas ([1]; Dose 3 (μM)) [%] | Survival % With Anti-Fas [1, 3] [%] | Survival % Without Anti-Fas ([1]; Dose 10 (μM)) [%] | Survival % With Anti-Fas [1, 6] [%] | further results
1 | Cc1cn(C2=C(c3cn(CCCSC(=N)N)c4ccccc34)C(=O)NC2=O)c2ccccc12 [Example 146, 3-(3-((amidiothio)propyl)indol-3-yl)-4-(3-methylindol-1-yl)-pyrrole-2,5-dione] | >90 | 20 | 0 |  | 
2 | Cc1cn(C2=C(c3cn(CCCSC(=N)N)c4ccc(OCc5ccccc5)cc34)C(=O)NC2=O)c2ccccc12 [Example 149, 3-(3-((amidiothio)propyl)-5-benzyloxyindol-3-yl)-4-(3-methylindol-1-yl)-pyrrole-2,5-dione] | >90 | 2 | 0 |  | 
3 | N=C(N)SCCCn1cc(C2=C(n3ccc4cc(OCc5ccccc5)ccc43)C(=O)NC2=O)c2ccccc21 [Example 147, 3-(3-((amidiothio)propyl)indol-3-yl)-4-(5-benzyloxyindol-1-yl)-pyrrole-2,5-dione] | >90 | 20 | 0 |  | 
4 | N=C(N)SCCCn1cc(C2=C(N3CCc4ccccc43)C(=O)NC2=O)c2ccccc21 [Example 159, 3-(3-((amidiothio)propyl)indol-3-yl)-4-(indolin-1-yl)-pyrrole-2,5-dione] | >90 | 10 | 17 |  | 
5 | 3-(3-(amidinothio)propyl)indol-1-yl)-4-(5-benzyloxy-1-methylindol-3-yl)-4-pyrrole-2,5-dione [Example 168] | 46 | 1 | 1 | 0 | Survival % Without Anti-Fas ([1]; Dose 0.3 (μM)): 91%; Survival % With Anti-Fas [1, 4]: 49%; Survival % Without Anti-Fas ([1]; Dose 1 (μM)): 89%; Survival % With Anti-Fas [1, 5]: 49%; Survival % Without Anti-Fas ([1]; Dose 30 (μM)): 0%; Survival % With Anti-Fas [1, 7]: 0%
6 | N=C(N)SCCCn1cc(C2=C(n3ccc4ccccc43)C(=O)NC2=O)c2cc(OCc3ccccc3)ccc21 [Example 148, 3-(3-((amidiothio)propyl)-5-benzyloxyindol-3-yl)-4-(indol-1-yl)-pyrrole-2,5-dione] | >90 |  | 0 | 20 | 
7 | CN(C)CCCn1cc(C2=C(n3ccc4ccccc43)C(=O)NC2=O)c2cc(OCc3ccccc3)ccc21 [Example 136, 3-(5-benzyloxy-1-(3-dimethylaminopropyl)indol-3-yl)-4-(indol-1-yl)-pyrrole-2,5-dione] |  |  |  |  | cells killed ([2]; 10 μM): 100%; pIC50 ([2]; Homo sapiens, DU-145, 168 h, 7 days of treatment): ~5.15
8 | N=C(N)SCCCn1c2ccccc2c2c3c(n4c5ccccc5cc4c21)C(=O)NC3=O [Example 145] | 93 | 35 | 11 |  | 
9 | Cn1cc(C2=C(n3cc(CCCSC(=N)N)c4ccccc43)C(=O)NC2=O)c2ccccc21 [Example 167] | 50 | 5 | 0 | 0 | pIC50 (Human lung H460 cells): ~5.52; Survival % Without Anti-Fas ([1]; Dose 0.3 (μM)): 98%; Survival % With Anti-Fas [1, 4]: 43%; Survival % Without Anti-Fas ([1]; Dose 1 (μM)): 88%; Survival % With Anti-Fas [1, 5]: 17%; Survival % Without Anti-Fas ([1]; Dose 30 (μM)): 0%; Survival % With Anti-Fas [1, 7]: 0%
10 | Cc1cc2ccccc2n1C1=C(c2cn(CCCSC(=N)N)c3ccc(OCc4ccccc4)cc23)C(=O)NC1=O [Example 150, 3-(3-((amidiothio)propyl)-5-benzyloxyindol-3-yl)-4-(2-methylindol-1-yl)-pyrrole-2,5-dione] | >90 | 5 | 0 |  | 
